Consider one compound from US20260297165A1, “COMPOSITIONS AND METHODS FOR EXPRESSING THERAPEUTICS” (priority 2023, published 2026).

One assay addresses C3b (Homo sapiens, UniProt P01024). Nature of the assay: Binding affinity to C3b by Biacore. The protocol: (§1) The estimated IC50 of the C3i fusion proteins were measured as shown above. Next their binding affinity with Complement C3b, C3c, and C3 was tested. Binding affinity was measured using Biacore. Biosensor analysis was performed at room temperature in a running buffer (1×HBS, 20 mM NaH2PO4-Na2HPO4·H2O, 150 mM NaCl, pH 7.4, supplemented with 0.005% (v/v) surfactant P20), using a Biacore 3000 optical biosensor equipped with a research-grade CM5 sensor chip. C3, C3b and C3c proteins were immobilized in flow cell 2 or 4 via standard amine coupling, leaving Fc1 or 3 unmodified to serve as a reference surface. The immobilization levels of proteins were calculated using Rmax=100 RU and the ratio of ligand molecular weight/analyte molecular. Data analysis was conducted using the BIAevaluation software. All sensorgrams were double-referenced by subtracting the response on a reference flow cell and a blank sample. Five 2× serial dilution samples were injected sequentially from low concentration to high concentration of proteins at a flow rate of 30 μL/min (300 seconds for each), followed by a dissociation time of 900 seconds. Calculations of kinetic parameters were conducted assuming a simple 1:1 (Langmuir) binding.
(§2) After the testing concentrating was optimized for individual proteins, they were applied on the immobilized chip, and association rate constant (Ka, M^−1s^−1), dissociation constant (Kd, s^−1), equilibrium dissociation constant (KD, M), maximal feasible signal (Rmax), and chi^2 were recorded. The results for complement C3b, C3c, and C3 are listed in Table 22, Table 23, and Table 24, respectively. […] The estimated IC50 of C3i and its fusion proteins and their binding affinity (KD) against C3b, C3c, and C3 are shown in Table 25. When KD values were plotted against estimated IC50, they correlated well with each other for C3b (FIG. 23A) and C3c (FIG. 23B) and, in most cases, for C3 (FIG. 23C).
In general terms: SPR reads the build-up and loss of mass on a sensor chip optically.

The target in a further assay is C3 (Homo sapiens, UniProt P01024). The assay is described as follows: Binding affinity to C3 by Biacore. On the procedure: as §1, §2
The next assay deals with NIH-3T3 cells. Nature of the assay: cGMP production in NIH-3T3 cells. The assay is classed as cell-based.
The test system of the next assay is rabbit erythrocytes. The assay is described as follows: Hemolysis inhibition assay with rabbit erythrocytes and normal human serum. The assay is classed as cell-based. The protocol: In parallel, serum dose causing approximately 70% hemolysis was determined for new normal human serum (NHS) before the purified proteins were used for a hemolysis inhibition assay. Various doses of NHS were mixed with rabbit erythrocytes (Cat. B300, Complement Technology) in the presence of 0.1 M Mg2+ EGTA (Cat. B106, Complement Technology). Background lysis was measured using GVBE (GVBo plus 20 mM EDTA, pH 7.4), and maximum lysis was measured by lysing all the cells with Maximum Lysis Buffer (GVBo+0.2% NP40). After all the samples were mixed on ice, they were transferred to 37° C. water bath. The samples were vortexed every 5 minutes and incubated for 30 minutes in total. 1 mL of cold GVBE was added into each tube to stop the reaction. After samples were centrifuged for 3 min at approximately 1000× g to pellet cells, the supernatant was transferred to a cuvette and read at 412 nm in SpectaMax iD3 microplate reader. Each reading was normalized to the background, divided by Max Lysis minus background, and multiplied by 100, which equaled % of Max Lysis. Using the GraphPad Prism software, the % of Max Lysis was plotted against microliters of NHS, and the dose of NHS causing 50% and 70% hemolysis was respectively determined.
Using the NHS dose causing 70% hemolysis, the purified mutant proteins were utilized for a hemolysis inhibition assay. All mutant proteins were 2× serially diluted and mixed with the rabbit erythrocytes in the presence of NHS, resulting in the final concentration of […], 4.10, 2.05, and 1.02 μM of each mutant protein. The benchmark, CP40 peptide, was also used in this study. After each reading was subtracted from the background, it was divided by 70% hemolysis minus background and multiplied by 100. The value was considered as % of hemolysis inhibition. The percentage of hemolysis inhibition was plotted against the molecular concentration of mutant proteins by GraphPad Prism software and IC50 value was estimated based on the data plotting.

The test system of a further assay is Hep1c1c7 cells. Nature of the assay: Cell lysis inhibition assay (normal human serum, WST-8). In kind it is cell-based. To be noted: NHS dose causing 70% cell lysis. On the procedure: To test biological function of sCD59, cell lysis inhibition assay was performed using Hep1c1c7 cells. The serum dose causing approximately 70% cell lysis was determined for the new normal human serum (NHS) before the purified sCD59 proteins were used for cell lysis inhibition assay. Three hours prior to the experiment, 1×10^4 cells per well were seeded onto a 96-well plate. Various doses of NHS were mixed with GVB2++ buffer (with Ca^2+ and Mg^2+) (Complement Technology, Cat. B100). 100 μL of mixture was added to each well. Background lysis was measured using GVB2++ buffer only and maximum lysis was measured by lysing all the cells with Maximum Lysis Buffer (GVB2++ plus 1% SDS). […] The absorbance at 450 nm was measured using a microplate reader. To calculate the percentage of live cells, the absorbance was subtracted by the Max Lysis, divided by Background Lysis minus Max Lysis and multiplied by 100, which equaled the % of live cells. The % of dead cells was calculated by subtracting 100 by the % of live cells. In the GraphPad Prism, the % of cell death was plotted against dose of NHS, and the dose of NHS causing 50% and 70% hemolysis was respectively determined (FIG. 15A). […]
To test biological function of vsCD59, cell lysis inhibition assay is performed using Hep1c1c7 cells. […] The absorbance at 450 nm is measured using a microplate reader. […]

Another assay has as its target T1, C3c (Homo sapiens, UniProt P01024).
T1 construct: C3, C3b and C3c proteins were immobilized in flow cell 2 or 4
The assay is described as follows: Binding affinity to C3c by Biacore.

Structures are written as SMILES.

Sequence of C3 (P01024 23-1663): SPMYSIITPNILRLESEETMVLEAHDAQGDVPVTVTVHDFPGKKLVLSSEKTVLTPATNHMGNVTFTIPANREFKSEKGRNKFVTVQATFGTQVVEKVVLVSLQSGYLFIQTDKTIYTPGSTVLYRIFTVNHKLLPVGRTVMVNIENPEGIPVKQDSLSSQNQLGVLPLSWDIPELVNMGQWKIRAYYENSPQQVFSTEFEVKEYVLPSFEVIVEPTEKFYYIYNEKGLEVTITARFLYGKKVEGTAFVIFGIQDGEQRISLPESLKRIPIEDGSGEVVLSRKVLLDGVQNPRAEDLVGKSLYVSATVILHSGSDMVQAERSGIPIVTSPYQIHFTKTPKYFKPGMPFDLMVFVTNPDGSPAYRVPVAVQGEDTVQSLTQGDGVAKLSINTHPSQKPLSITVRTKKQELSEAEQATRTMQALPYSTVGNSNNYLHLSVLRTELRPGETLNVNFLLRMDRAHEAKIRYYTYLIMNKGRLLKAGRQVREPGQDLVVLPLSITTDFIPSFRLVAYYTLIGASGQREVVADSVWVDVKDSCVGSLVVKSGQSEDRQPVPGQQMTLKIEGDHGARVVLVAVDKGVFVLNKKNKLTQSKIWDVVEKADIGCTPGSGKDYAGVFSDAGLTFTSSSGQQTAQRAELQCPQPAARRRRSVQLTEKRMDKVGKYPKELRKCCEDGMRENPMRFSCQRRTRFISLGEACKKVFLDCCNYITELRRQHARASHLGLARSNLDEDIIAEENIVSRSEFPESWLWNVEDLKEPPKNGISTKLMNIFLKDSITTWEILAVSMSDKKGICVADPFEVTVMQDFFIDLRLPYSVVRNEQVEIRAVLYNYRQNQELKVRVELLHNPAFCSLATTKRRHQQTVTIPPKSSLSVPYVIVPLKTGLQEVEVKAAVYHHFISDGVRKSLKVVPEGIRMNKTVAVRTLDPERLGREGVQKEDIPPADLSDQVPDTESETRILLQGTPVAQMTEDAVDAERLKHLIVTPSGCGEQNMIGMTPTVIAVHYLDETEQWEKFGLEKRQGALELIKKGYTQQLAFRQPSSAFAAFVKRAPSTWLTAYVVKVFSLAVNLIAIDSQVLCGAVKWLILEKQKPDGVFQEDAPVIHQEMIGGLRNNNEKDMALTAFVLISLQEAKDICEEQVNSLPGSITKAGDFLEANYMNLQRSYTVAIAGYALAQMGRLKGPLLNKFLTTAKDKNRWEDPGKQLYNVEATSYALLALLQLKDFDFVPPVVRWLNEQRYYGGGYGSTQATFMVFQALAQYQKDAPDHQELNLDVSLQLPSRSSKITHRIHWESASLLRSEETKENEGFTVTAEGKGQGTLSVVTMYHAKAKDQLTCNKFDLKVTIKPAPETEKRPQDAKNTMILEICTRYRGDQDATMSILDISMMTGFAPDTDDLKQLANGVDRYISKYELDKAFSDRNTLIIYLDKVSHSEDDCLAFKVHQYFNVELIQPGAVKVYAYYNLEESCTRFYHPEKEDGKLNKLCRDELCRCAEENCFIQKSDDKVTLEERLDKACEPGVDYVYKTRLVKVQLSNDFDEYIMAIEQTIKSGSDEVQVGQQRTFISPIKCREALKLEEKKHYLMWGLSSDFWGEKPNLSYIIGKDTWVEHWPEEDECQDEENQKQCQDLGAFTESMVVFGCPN
T1 sequence (P01024 23-667 limits assumed): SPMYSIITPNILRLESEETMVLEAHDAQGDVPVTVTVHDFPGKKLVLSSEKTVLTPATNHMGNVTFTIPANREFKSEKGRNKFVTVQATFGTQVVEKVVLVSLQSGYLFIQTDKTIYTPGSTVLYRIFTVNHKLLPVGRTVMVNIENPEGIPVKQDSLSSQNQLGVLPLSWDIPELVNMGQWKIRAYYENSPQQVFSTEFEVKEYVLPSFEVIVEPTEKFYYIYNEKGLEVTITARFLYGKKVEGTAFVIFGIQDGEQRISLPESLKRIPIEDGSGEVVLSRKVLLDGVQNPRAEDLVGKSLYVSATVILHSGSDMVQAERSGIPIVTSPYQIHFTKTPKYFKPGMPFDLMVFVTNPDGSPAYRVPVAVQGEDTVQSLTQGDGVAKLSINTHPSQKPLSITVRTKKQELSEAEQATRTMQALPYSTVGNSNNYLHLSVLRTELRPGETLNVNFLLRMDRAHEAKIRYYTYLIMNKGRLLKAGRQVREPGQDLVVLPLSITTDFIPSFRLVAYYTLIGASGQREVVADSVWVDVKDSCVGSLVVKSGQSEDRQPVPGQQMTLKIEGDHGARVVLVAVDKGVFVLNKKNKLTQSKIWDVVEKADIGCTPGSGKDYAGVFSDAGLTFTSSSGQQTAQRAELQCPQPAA
T1 sequence (P01024 749-954 partner limits assumed): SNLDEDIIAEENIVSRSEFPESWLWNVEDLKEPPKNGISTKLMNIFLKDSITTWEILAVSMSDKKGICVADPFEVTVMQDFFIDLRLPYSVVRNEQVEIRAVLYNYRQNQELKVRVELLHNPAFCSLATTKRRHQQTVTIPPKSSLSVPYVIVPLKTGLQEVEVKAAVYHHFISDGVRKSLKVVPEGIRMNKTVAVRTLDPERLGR
T1 sequence (P01024 1321-1663 partner limits assumed): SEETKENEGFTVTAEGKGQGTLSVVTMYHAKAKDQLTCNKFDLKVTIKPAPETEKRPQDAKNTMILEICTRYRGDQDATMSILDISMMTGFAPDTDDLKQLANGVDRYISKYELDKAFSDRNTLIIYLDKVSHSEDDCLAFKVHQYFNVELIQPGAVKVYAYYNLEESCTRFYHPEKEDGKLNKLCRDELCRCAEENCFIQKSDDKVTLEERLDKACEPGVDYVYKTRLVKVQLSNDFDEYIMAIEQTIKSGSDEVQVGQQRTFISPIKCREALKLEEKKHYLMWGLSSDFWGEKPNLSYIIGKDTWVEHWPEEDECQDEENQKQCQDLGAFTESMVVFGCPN
Sequence of C3b (P01024 23-667 limits assumed): as the sequence (P01024 23-667 limits assumed) above
Sequence of C3b (P01024 749-1663 partner limits assumed): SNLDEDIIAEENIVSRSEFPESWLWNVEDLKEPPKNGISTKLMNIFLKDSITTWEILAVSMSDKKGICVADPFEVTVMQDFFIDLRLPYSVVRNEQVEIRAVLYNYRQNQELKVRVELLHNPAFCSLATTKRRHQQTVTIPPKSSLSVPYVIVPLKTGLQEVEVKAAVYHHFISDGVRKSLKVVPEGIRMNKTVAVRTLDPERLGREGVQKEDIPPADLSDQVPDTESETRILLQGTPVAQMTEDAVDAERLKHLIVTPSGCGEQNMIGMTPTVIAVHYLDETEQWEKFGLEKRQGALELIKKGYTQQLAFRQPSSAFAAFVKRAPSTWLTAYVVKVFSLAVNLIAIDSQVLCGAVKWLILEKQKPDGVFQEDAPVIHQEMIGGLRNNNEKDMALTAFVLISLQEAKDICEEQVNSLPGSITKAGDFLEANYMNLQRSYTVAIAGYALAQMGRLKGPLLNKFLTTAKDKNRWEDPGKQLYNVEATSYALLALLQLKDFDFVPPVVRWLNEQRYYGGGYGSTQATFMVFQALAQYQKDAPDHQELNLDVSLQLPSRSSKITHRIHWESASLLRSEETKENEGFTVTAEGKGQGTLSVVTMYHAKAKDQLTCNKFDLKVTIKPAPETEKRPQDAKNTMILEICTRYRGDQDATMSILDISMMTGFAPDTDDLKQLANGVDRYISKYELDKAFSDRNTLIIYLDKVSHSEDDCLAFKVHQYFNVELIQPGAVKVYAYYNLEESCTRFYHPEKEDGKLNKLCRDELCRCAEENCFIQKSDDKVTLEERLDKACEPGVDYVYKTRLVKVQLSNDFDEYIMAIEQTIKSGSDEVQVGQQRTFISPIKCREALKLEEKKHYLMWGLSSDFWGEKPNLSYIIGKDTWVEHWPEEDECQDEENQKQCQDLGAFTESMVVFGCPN

For orientation: Kd means the free concentration of one partner at which half of the binding sites on the other are occupied at equilibrium, for simple one-to-one binding. Usually IC50 stands for the concentration at which inhibition is half-maximal. In the case of `CC[C@H](C)[C@H](NC(=O)[C@H](N)Cc1ccc(O)cc1)C(=O)N[C@H]1CSSC[C@@H](C(=O)N(C)[C@H](C(N)=O)[C@@H](C)CC)NC(=O)[C@H](CCCNC(=N)N)NC(=O)[C@H](Cc2c[nH]cn2)NC(=O)[C@H](C)NC(=O)CN(C)C(=O)[C@H](Cc2c[nH]c3ccccc23)NC(=O)[C@H](CC(=O)O)NC(=O)[C@H](CCC(N)=O)NC(=O)[C@H](Cc2cn(C)c3ccccc23)NC(=O)[C@H](C(C)C)NC1=O` [CP40], the dissociation constant (Kd) was 0.32 nM on C3b (Affinity to C3b KD, C3b, Biacore, Table 25); 0.324 nM at C3b (KD, C3b immobilized, 1:1 (Langmuir) binding); 0.63 nM on C3 (Affinity to C3 KD, Table 25); 0.629 nM on C3 (KD, equilibrium dissociation constant, room temperature, pH 7.4); 0.509 nM at C3c. Moreover, on C3b (C3b immobilized), the “Rmax (maximal feasible signal)” value amounted to 3.18. In addition, the “Chi^2” value on C3b (C3b immobilized, fit) was 0.12; at C3 (chi^2 of fit), 0.10; on C3c (chi^2 of fit, C3c, Biacore), 0.05. Also, the Rmax on C3 (maximal feasible signal) is recorded as 25.70; on C3c (maximal feasible signal, C3c, Biacore), 4.65. Further, the cGMP production result in the assay on NIH-3T3 cells is given as “not”. Also, the “Estimated IC50 of hemolysis inhibition” value in the assay on rabbit erythrocytes (NHS dose causing 70% hemolysis) is 780 nM. For the same compound, the “Bioactivity IC50 Change” value in the assay on rabbit erythrocytes (change of estimated IC50 relative to CP40) was 1 fold. The IC50 with rabbit erythrocytes (estimated IC50, read-out: Bioactivity IC50) was 780 nM. In addition, the cell lysis inhibition entry in the assay with Hep1c1c7 cells is recorded as “marginal inhibition”.
